Test results as given in ChEMBL document CHEMBL5058649, “Data for DCP probe BAY 1816032” (2022).

Legend:
Conditions in all cases: Compound concentration 1.0 uM
[1] = target: Mitogen-activated protein kinase kinase kinase kinase 1 (Homo sapiens) (UniProt Q92918); experiment: HPK1 DiscoveRx kinase panel
[2] = target: Mitogen-activated protein kinase kinase kinase 2 (Homo sapiens) (UniProt Q9Y2U5); experiment: MAP3K2 DiscoveRx kinase panel
[3] = target: Cyclin-dependent kinase 4/cyclin D1 (Homo sapiens) (UniProt P11802+P24385); experiment: CDK4-cyclinD1 DiscoveRx kinase panel; format: protein-complex assay
[4] = target: Fibroblast growth factor receptor 2 (Homo sapiens) (UniProt P21802); experiment: FGFR2 DiscoveRx kinase panel
Sequence of Fibroblast growth factor receptor 2 (Homo sapiens) (P21802 22-821 limits assumed): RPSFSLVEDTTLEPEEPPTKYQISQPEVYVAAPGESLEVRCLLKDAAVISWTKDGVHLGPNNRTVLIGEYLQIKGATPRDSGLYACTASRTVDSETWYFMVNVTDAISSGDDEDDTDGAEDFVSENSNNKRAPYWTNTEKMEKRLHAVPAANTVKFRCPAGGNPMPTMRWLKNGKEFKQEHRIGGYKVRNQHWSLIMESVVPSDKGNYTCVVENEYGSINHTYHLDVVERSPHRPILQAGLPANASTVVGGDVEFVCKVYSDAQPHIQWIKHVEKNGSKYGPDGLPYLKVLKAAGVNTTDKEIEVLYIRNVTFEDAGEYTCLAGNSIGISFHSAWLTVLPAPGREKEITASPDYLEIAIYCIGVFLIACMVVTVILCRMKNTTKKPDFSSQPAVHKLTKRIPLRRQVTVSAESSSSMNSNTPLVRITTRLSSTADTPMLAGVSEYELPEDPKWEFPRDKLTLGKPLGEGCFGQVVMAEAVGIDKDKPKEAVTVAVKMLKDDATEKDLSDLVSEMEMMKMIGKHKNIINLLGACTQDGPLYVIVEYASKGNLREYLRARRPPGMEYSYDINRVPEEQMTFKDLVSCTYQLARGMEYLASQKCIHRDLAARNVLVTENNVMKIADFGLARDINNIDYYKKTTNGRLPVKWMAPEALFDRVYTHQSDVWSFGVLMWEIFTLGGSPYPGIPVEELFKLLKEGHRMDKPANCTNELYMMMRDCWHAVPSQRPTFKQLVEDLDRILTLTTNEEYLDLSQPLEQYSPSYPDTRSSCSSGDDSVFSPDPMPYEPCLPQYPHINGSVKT

[5] = target: MAP/microtubule affinity-regulating kinase 4 (Homo sapiens) (UniProt Q96L34); experiment: MARK4 DiscoveRx kinase panel
Sequence of MAP/microtubule affinity-regulating kinase 4 (Homo sapiens) (Q96L34 whole entry): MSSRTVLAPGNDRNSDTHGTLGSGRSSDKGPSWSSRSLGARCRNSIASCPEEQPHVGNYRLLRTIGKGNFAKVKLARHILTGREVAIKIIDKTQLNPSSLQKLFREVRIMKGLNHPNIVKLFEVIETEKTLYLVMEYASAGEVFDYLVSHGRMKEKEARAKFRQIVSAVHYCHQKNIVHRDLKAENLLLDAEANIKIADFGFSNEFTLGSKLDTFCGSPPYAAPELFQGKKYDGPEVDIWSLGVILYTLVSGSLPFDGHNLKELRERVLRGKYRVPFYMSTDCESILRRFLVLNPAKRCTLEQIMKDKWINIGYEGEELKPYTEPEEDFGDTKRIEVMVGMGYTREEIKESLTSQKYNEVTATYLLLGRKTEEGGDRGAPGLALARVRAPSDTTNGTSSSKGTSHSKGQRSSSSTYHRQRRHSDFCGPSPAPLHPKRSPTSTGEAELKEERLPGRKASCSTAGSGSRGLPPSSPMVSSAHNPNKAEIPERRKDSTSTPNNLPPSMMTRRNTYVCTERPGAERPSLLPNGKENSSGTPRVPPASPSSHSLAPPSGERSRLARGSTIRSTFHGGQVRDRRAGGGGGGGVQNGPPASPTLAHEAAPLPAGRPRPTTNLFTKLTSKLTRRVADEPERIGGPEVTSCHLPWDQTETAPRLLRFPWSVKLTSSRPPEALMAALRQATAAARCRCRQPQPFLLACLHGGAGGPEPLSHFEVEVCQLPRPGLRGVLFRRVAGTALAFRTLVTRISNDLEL

Sequence of Mitogen-activated protein kinase kinase kinase 2 (Homo sapiens) (Q9Y2U5 whole entry): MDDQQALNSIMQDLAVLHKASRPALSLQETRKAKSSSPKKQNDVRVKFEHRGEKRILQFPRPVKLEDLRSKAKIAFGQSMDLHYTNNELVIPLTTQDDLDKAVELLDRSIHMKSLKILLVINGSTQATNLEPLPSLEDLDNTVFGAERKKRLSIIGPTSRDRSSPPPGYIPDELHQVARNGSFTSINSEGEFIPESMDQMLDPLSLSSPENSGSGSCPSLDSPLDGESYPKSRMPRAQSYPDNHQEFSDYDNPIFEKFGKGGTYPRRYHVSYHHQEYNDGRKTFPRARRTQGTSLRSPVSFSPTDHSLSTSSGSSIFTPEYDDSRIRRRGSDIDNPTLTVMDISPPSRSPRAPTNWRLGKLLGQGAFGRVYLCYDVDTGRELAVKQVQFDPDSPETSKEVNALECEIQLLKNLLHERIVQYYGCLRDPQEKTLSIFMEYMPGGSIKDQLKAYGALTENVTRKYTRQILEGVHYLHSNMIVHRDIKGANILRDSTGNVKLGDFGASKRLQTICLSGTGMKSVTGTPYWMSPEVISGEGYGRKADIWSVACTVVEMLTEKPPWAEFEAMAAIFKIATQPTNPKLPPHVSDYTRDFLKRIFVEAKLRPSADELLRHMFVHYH
Sequence of Mitogen-activated protein kinase kinase kinase kinase 1 (Homo sapiens) (Q92918 whole entry, looked up): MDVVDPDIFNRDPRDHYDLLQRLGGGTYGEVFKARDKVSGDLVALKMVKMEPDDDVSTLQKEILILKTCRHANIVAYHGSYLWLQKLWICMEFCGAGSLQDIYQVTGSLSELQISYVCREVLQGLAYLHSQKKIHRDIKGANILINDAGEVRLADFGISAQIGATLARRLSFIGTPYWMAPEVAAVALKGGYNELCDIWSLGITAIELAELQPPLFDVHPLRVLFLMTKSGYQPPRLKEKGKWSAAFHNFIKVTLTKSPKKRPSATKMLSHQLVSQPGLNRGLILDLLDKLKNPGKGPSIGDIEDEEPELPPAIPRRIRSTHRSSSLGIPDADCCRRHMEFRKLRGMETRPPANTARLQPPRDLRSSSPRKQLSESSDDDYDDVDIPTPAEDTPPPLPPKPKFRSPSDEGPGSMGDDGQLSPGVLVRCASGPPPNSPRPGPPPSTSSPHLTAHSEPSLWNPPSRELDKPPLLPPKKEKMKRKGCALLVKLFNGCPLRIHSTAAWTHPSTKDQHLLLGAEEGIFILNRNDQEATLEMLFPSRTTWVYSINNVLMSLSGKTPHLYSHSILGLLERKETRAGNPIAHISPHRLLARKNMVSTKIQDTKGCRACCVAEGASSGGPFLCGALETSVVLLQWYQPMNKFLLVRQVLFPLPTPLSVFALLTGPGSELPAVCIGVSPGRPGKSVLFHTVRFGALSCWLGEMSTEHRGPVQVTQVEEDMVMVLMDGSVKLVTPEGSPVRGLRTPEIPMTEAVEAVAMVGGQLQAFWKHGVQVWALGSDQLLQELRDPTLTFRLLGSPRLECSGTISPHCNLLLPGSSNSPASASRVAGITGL

Work on `COc1cnccc1Nc1nc(-c2nn(Cc3c(F)cc(OCCO)cc3F)c3ccccc23)ncc1OC` yielded a residual activity [1] of 77%, a residual activity [2] of 97% and a residual activity [3] of 100%. It also gave a residual activity [4] of 100% and a residual activity [5] of 100%.
